Broadly, the EC50 is the concentration giving half of the maximal effect. A lower EC50 goes with higher potency in that assay.

The assay addresses T1, human GPR119 (hGPR119) (Homo sapiens, UniProt Q8TDV5).
T1 construct: expressed in transfected cells; host or cells: CHO-K1
T1 sequence (Q8TDV5 1-335): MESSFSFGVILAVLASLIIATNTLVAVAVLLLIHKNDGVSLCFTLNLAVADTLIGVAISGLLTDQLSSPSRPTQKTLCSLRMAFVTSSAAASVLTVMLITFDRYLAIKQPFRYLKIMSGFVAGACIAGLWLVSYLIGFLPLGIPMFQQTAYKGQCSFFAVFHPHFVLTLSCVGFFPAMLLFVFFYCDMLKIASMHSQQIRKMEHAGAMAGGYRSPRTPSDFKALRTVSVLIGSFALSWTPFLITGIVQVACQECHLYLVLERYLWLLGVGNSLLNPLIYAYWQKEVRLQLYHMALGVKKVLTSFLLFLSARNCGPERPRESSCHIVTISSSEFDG
Briefly: cAMP accumulation assay in CHO-K1 cells stably expressing hGPR119. The format is cell-based. To be noted: cAMP HTRF, 60 minutes. The method, then: CHO-K1 cells stably expressing human GPR119 (hGPR119) were prepared by transfection of a GPR119-carrying plasmid using Lipofectamine 2000 (following manufacturer instructions). A stable cell line was established using the limiting dilution method with geneticine selection. Assay-ready frozen (ARF) cells were prepared and used throughout the study.
The assay was performed in a 384-well plate format using the CAMP Gs dynamic assay kit from Cisbio. ARF cells expressing hGPR119 were thawed, washed and then resuspended in CAMP stimulation buffer at a cell density of 1.1×10^6 cells/mL. Cells were plated at a density of ~10,000 cells/well (9 μL/well). Dose response curves for the tested compounds were prepared in a cAMP stimulation buffer, containing 0.1% Tween 80 at 4 fold the final concentration. The compounds were then transferred to the cell plates using BRAVO (3 μL/well) and the plates were incubated for 60 minutes at 37° C./5% CO2. Detection buffer (10 μL, prepared as described in the CAMP Gs dynamic kit) were added to each well, and the plates were incubated at ambient temperature for 1 hr.
RT-FRET was measured using a ClarioSTAR plate reader, calculating the ratio between emissions at 665 nm and 620 nm (HTRF ratio). The HTRF ratio for positive (Max) and negative (Min) controls were used to normalize HTRF data and generate values for % activity. EC50 and Max activity values were determined using a standard 4-parameter fit.
`O=C(CC1CN(C(=O)Cc2ccc(OCCCC3CCN(c4ncc(Cl)cn4)CC3)cc2F)C1)NCCCCS(=O)(=O)O` [Compound A70, 4-[[2-[1-[2-[4-[3-[1-(5-chloropyrimidin-2-yl)-4-piperidyl]propoxy]-2-fluoro-phenyl]acetyl]azetidin-3-yl]acetyl]amino]butane-1-sulfonic acid] displayed an EC50 of 100 to 1000 nM.
For `O=C(Cc1ccc(OCCCC2CCN(c3ncc(Cl)cn3)CC2)cc1F)N1CC(CN2C[C@@H](O)[C@@H](O)C2)C1` [Compound A20, 2-[4-[3-[1-(5-chloropyrimidin-2-yl)-4-piperidyl]propoxy]-2-fluoro-phenyl]-1-[3-[rac-(3S,4R)-3,4-dihydroxypyrrolidin-1-yl]methyl]azetidin-1-yl]ethanone], the EC50 is at most 100 nM.
The result for `O=C(Cc1ccc(OCCCC2CCN(c3ncc(Cl)cn3)CC2)cc1F)N1CC(CNCCOCCOCCO)C1` [Compound A23] reads at most 100 nM.
Regarding `O=C(Cc1ccc(OCCCC2CCN(c3ncc(Cl)cn3)CC2)cc1F)N1CC(CN2C[C@@H](O)[C@@H](O)[C@@H](O)C2)C1` [Compound A22, 2-[4-[3-[1-(5-chloropyrimidin-2-yl)-4-piperidyl]propoxy]-2-fluoro-phenyl]-1-[3-[[rac-(3R,5S)-3,4,5-trihydroxy-1-piperidyl]methyl]azetidin-1-yl]ethanone], the EC50 was at most 100 nM.
The result for `CCc1cnc(N2CCC(CCCOc3cc(F)c(CC(=O)N4CC(CNCC(O)(CO)CO)C4)c(F)c3)CC2)nc1` [Compound A37, 1-(3-(((2,3-dihydroxy-2-(hydroxymethyl)propyl)amino)methyl)azetidin-1-yl)-2-(4-(3-(1-(5-ethylpyrimidin-2-yl)piperidin-4-yl)propoxy)-2,6-difluorophenyl)ethan-1-one] reads at most 100 nM; that for `COCc1cnc(N2CCC(CCCOc3ccc(CC(=O)N4CC(CNCC[C@@H](O)C[C@@H](O)CC(=O)O)C4)c(F)c3)CC2)nc1` [Compound A52, (3R,5R)-7-[[1-[2-[2-fluoro-4-[3-[1-[5-(methoxymethyl)pyrimidin-2-yl]-4-piperidyl]propoxy]phenyl]acetyl]azetidin-3-yl]methylamino]-3,5-dihydroxy-heptanoic acid], 100 to 1000 nM; that for `O=C(NCCNCCC1CN(C(=O)Cc2ccc(OCCCC3CCN(c4ncc(Cl)cn4)CC3)cc2F)C1)NC(CO)(CO)CO` [Compound A30, 1-(2-((2-(1-(2-(4-(3-(1-(5-chloropyrimidin-2-yl)piperidin-4-yl)propoxy)-2-fluorophenyl)acetyl)azetidin-3-yl)ethyl)amino)ethyl)-3-(1,3-dihydroxy-2-(hydroxymethyl)propan-2-yl)urea], 100 to 1000 nM.
For the compound `COCc1cnc(N2CCC(CCCOc3ccc(CC(=O)N4CC(C(=O)NC[C@H](O)[C@@H](O)[C@H](O)[C@H](O)CO)C4)c(F)c3)CC2)nc1` (racemic) [Compound A12, 1-[2-[2-fluoro-4-[3-[1-[5-(methoxymethyl)pyrimidin-2-yl]-4-piperidyl]propoxy]phenyl]acetyl]-N-[rac-(2S,3R,4R,5R)-2,3,4,5,6-pentahydroxyhexyl]azetidine-3-carboxamide], the EC50 lay in the range of 100 to 1000 nM.
Next, `NCCOCCOCCNCC1CN(C(=O)Cc2ccc(OCCCC3CCN(c4ncc(Cl)cn4)CC3)cc2F)C1` [Compound A24, 1-[3-[[2-[2-(2-aminoethoxy)ethoxy]ethylamino]methyl]azetidin-1-yl]-2-[4-[3-[1-(5-chloropyrimidin-2-yl)-4-piperidyl]propoxy]-2-fluoro-phenyl]ethanone]: 100 to 1000 nM; `O=C(Cc1ccc(OCCCC2CCN(c3ncc(Cl)cn3)CC2)cc1F)N1CC(CCNC(CO)(CO)CO)C1` [Compound A29, 2-(4-(3-(1-(5-chloropyrimidin-2-yl)piperidin-4-yl)propoxy)-2-fluorophenyl)-1-(3-(2-((1,3-dihydroxy-2-(hydroxymethyl)propan-2-yl)amino)ethyl)azetidin-1-yl)ethan-1-one]: 100 to 1000 nM.
Turning to “1-[2-[2-fluoro-4-[3-[1-[5- (methoxymethyl)pyrimidin-2-yl]-4- piperidyl]propoxy]phenyl]acetyl]-N-[2-[2- hydroxy-1,1- bis(hydroxymethyl)ethyl]carbamoylamino] ethyl]azetidine-3-carboxamide [Compound A2]”, the EC50 lay in the range of 100 to 1000 nM.
The result for `CCCc1cnc(N2CCC(CCCOc3ccc(CC(=O)N4CC(CNCC(CO)CO)C4)c(F)c3)CC2)nc1` [Compound A40, 2-(2-fluoro-4-(3-(1-(5-propylpyrimidin-2-yl)piperidin-4-yl)propoxy)phenyl)-1-(3-(((3-hydroxy-2-(hydroxymethyl)propyl)amino)methyl)azetidin-1-yl)ethan-1-one] reads at most 100 nM; that for `COc1cnc(N2CCC(CCCOc3ccc(CC(=O)N4CC(CNC[C@H](O)[C@@H](O)[C@H](O)[C@H](O)CO)C4)c(F)c3)CC2)nc1` (racemic) [Compound A49, 2-[2-fluoro-4-[3-[1-(5-methoxypyrimidin-2-yl)-4-piperidyl]propoxy]phenyl]-1-[3-[rac-(2S,3R,4R,5R)-2,3,4,5,6-pentahydroxyhexyl]amino]methyl]azetidin-1-yl]ethanone], 100 to 1000 nM.
The result for `CCCc1cnc(N2CCC(CCCOc3ccc(CC(=O)N4CC(CNC[C@H](O)[C@@H](O)[C@H](O)[C@H](O)CO)C4)c(F)c3)CC2)nc1` [Compound A44, 2-(2-fluoro-4-(3-(1-(5-propylpyrimidin-2-yl)piperidin-4-yl)propoxy)phenyl)-1-(3-((((2S,3R,4R,5R)-2,3,4,5,6-pentahydroxyhexyl)amino)methyl)azetidin-1-yl)ethan-1-one] reads 100 to 1000 nM.
The result for `O=C(CC1CN(C(=O)Cc2ccc(OCCCC3CCN(c4ncc(Cl)cn4)CC3)cc2F)C1)NCCCS(=O)(=O)O` [Compound A69, 3-[[2-[1-[2-[4-[3-[1-(5-chloropyrimidin-2-yl)-4-piperidyl]propoxy]-2-fluoro-phenyl]acetyl]azetidin-3-yl]acetyl]amino]propane-1-sulfonic acid] reads 100 to 1000 nM.
`O=C(NCCO[C@H]1O[C@H](CO)[C@@H](O)[C@H](O)[C@@H]1O)C1CN(C(=O)Cc2ccc(OCCCC3CCN(c4ncc(Cl)cn4)CC3)cc2F)C1` (racemic) [Compound A6, 1-[2-[4-[3-[1-(5-chloropyrimidin-2-yl)-4-piperidyl]propoxy]-2-fluoro-phenyl]acetyl]-N-[2-[rac-(2S,3S,4S,5S,6R)-3,4,5-trihydroxy-6-(hydroxymethyl)tetrahydropyran-2-yl]oxyethyl]azetidine-3-carboxamide] registered a 50% effective concentration (EC50) of 100 to 1000 nM.
Next, `CCc1cnc(N2CCC(CCCOc3ccc(CC(=O)N4CC(CNCCNC(=O)NC(CO)(CO)CO)C4)c(F)c3)CC2)nc1` [Compound A35, 1-(1,3-dihydroxy-2-(hydroxymethyl)propan-2-yl)-3-(2-(((1-(2-(4-(3-(1-(5-ethylpyrimidin-2-yl)piperidin-4-yl)propoxy)-2-fluorophenyl)acetyl)azetidin-3-yl)methyl)amino)ethyl)urea]: at most 100 nM.
In turn, `COCc1cnc(N2CCC(CCCOc3cc(F)c(CC(=O)N4CC(CNC[C@H](O)[C@@H](O)[C@H](O)[C@H](O)CO)C4)c(F)c3)CC2)nc1` [Compound A56] came in with an EC50 of 100 to 1000 nM.
The result for `O=C(Cc1ccc(OCCCC2CCN(c3ncc(Cl)cn3)CC2)cc1F)N1CC(CNC(CO)(CO)CO)C1` [Compound A16, 2-[4-[3-[1-(5-chloropyrimidin-2-yl)-4-piperidyl]propoxy]-2-fluoro-phenyl]-1-[3-[[[2-hydroxy-1,1-bis(hydroxymethyl)ethyl]amino]methyl]azetidin-1-yl]ethanone] reads at most 100 nM; that for `O=C(Cc1ccc(OCCCC2CCN(c3ncc(Cl)cn3)CC2)cc1F)N1CC(CNC[C@H](O)[C@@H](O)[C@H](O)[C@H](O)CO)C1` [Compound A14, 2-[4-[3-[1-(5-chloropyrimidin-2-yl)-4-piperidyl]propoxy]-2-fluoro-phenyl]-1-[3-[[[(2S,3R,4R,5R)-2,3,4,5,6-pentahydroxyhexyl]amino]methyl]azetidin-1-yl]ethanone], 100 to 1000 nM.
Next, `O=C(CC1CN(C(=O)Cc2ccc(OCCCC3CCN(c4ncc(Cl)cn4)CC3)cc2F)C1)NCC(O)(CO)CO` [Compound A8, 2-[1-[2-[4-[3-[1-(5-chloropyrimidin-2-yl)-4-piperidyl]propoxy]-2-fluoro-phenyl]acetyl]azetidin-3-yl]-N-[2,3-dihydroxy-2-(hydroxymethyl)propyl]acetamide]: 100 to 1000 nM.
The result for `O=C(Cc1ccc(OCCCC2CCN(c3ncc(Cl)cn3)CC2)cc1F)N1CC(CCNC(CO)CO)C1` [Compound A26, 2-(4-(3-(1-(5-chloropyrimidin-2-yl)piperidin-4-yl)propoxy)-2-fluorophenyl)-1-(3-(2-((1,3-dihydroxypropan-2-yl)amino)ethyl)azetidin-1-yl)ethan-1-one] reads at most 100 nM.

Values taken from patent publication US20260191858A1, “COMBINATION THERAPIES” (Kallyope, Inc., priority 2022, published 2026).
